Molecules are shown by their SMILES.

This assay relates to Rattus norvegicus. Briefly: Compound was evaluated in vivo for the effective dose of irradiation that causes antitumor activity. In kind it is functional. Particulars: light or radiation study.
The term ED50 denotes the dose at which the effect has come halfway, by size or by number of responders. Read a high ED50 as a need for a large dose. On to `CCC1=C(CC)c2cc3[nH]c(cc4[nH]c(cc5nc(cc1n2)C(=O)C5(CC)CC)c(CC)c4CC)C1(CC)C3=CCC(C#N)(C#N)C1(C#N)C#N.CCC1=C(CC)c2cc3[nH]c(cc4[nH]c(cc5nc(cc1n2)C1=CCC(C#N)(C#N)C(C#N)(C#N)C15CC)c(CC)c4CC)C(=O)C3(CC)CC` (mixture of isomers), for which it took a dose of 2.5 mg/kg to reach the 50% effect level (ED50).

`C=CC1=C(CC)/C2=C/c3[nH]c(c(CC)c3CC)/C=C3N=C(/C=c4\[nH]/c(c(CC)c4CC)=C\C1N2)C(CC)(CC)C\3=O.C=CC1=C(CC)C2/C=c3\[nH]/c(c(CC)c3CC)=C\C3=NC(=C\c4[nH]c(c(CC)c4CC)/C=C/1N2)/C(=O)C3(CC)CC` (mixture of isomers): the ED50 was 2.5 mg/kg.

Turning to `CCC1=C(CC)c2cc3[nH]c(cc4[nH]c(cc5nc(cc1n2)C(=O)C5(CC)CC)c(CC)c4CC)C1(CC)C3=CCC(C(=O)OC)=C1C(=O)OC.CCC1=C(CC)c2cc3[nH]c(cc4[nH]c(cc5nc(cc1n2)C1=CCC(C(=O)OC)=C(C(=O)OC)C15CC)c(CC)c4CC)C(=O)C3(CC)CC` (stereo not drawn), the ED50 came out at 1 mg/kg.
